# Reference: US9492398B2, “Nanocapsulation of essential oils for preventing or curing infectious diseases alone or with an antibiotic” (Eydo Pharma, priority 2011, dated 2016)
# Assays:
# [1] = from the literature; cited from earlier work
# E. coli 0705A0434 = assay: Minimal inhibitory concentration on Muller-Hinton agar; format: cell-based
# Description: (§1) The essential oils were also tested individually for their minimal inhibitory concentration.
# (§2) The solution was first prepared at 40% in DMSO before being placed on the Muller-Hinton agar in the following manner in Table VIII:
# (§3) Twenty-two different microorganisms were tested and their minimal inhibitory concentration was tested.
# E. aerogenes 0705A0867 = assay: as above; format: cell-based
# Description: as §1, §2, §3
# A. baumanni 12 = assay: as above; format: cell-based; conditions: A. baumanni 12; read-out: Minimal Inhibitory Concentration
# Description: as §1, §2, §3
# S. aureus 0701A0095 = assay: as above; format: cell-based
# Description: as §1, §2, §3
# S. aureus 0706C0025 = assay: as above; format: cell-based
# Description: as §1, §2, §3
# P. aeroginosa 0704C0134 = assay: as above; format: cell-based; conditions: P. aeroginosa 0704C0134
# Description: as §1, §2, §3
# P. aeroginosa 0703C0259 = assay: as above; format: cell-based
# Description: as §1, §2, §3
# Salmonell enteritidis 4 = assay: as above; format: cell-based; conditions: Salmonell enteritidis 4
# Description: as §1, §2, §3
# S. aureus 0703H0036 = assay: as above; format: cell-based
# Description: as §1, §2, §3
# A. baumanni CIP7034 = assay: as above; format: cell-based; conditions: A. baumanni CIP7034; read-out: Minimal Inhibitory Concentration
# Description: as §1, §2, §3
# A. baumanni SAN008 = assay: as above; format: cell-based; conditions: A. baumanni SAN008
# Description: as §1, §2, §3
# S. aureus 0702E0196 = assay: as above; format: cell-based
# Description: as §1, §2, §3
# A. baumanni AYE = assay: as above; format: cell-based; conditions: A. baumanni AYE
# Description: as §1, §2, §3
# S. aureus ATC25923 = assay: as above; format: cell-based
# Description: as §1, §2, §3
# K. oxyloca 0705C0187 = assay: as above; format: cell-based; conditions: K. oxyloca 0705C0187
# Description: as §1, §2, §3
# [2] = read-out: Minimal Inhibitory Concentration
compound,measurement,setting,value
CCN1CCN(C(=O)N[C@@H](C(=O)N[C@@H]2C(=O)N3[C@@H]2SC(C)(C)[C@@H]3C(=O)O)c2ccccc2)C(=O)C1=O [Piperacillin],LD50 in mice by intraperitoneal injection,[1],9970 mg/kg
Gentamicin,LD50 in mice by intraperitoneal injection,[1],245 mg/kg
CN(C)[C@@H]1C(O)=C(C(N)=O)C(=O)[C@@]2(O)C(O)=C3C(=O)c4c(O)ccc(Cl)c4[C@@H](O)[C@H]3C[C@@H]12 [Demeclocyclin],LD50 in mice by intraperitoneal injection,[1],120 mg/kg
O=C/C=C/c1ccccc1 [trans cinnamaldehyde],Minimal Inhibitory Concentration,E. coli 0705A0434; E. coli 0705A0434,2 mg/mL
same,MIC,"E. coli 0705A0434; Escherichia coli, 0705A0434, E. coli 0705A0434, read-out: Minimal Inhibitory Concentration",1000 mg/L
same,Minimal Inhibitory Concentration,E. aerogenes 0705A0867; E. aerogenes 0705A0867,2 mg/mL
same,MIC,"E. aerogenes 0705A0867; Klebsiella aerogenes, 0705A0867, E. aerogenes 0705A0867, read-out: Minimal Inhibitory Concentration",1000 mg/L
same,MIC,A. baumanni 12,1000 mg/L
same,Minimal Inhibitory Concentration,S. aureus 0701A0095; S. aureus 0701A0095,1.5 mg/mL
same,MIC,"S. aureus 0701A0095; Staphylococcus aureus, 0701A0095, S. aureus 0701A0095, read-out: Minimal Inhibitory Concentration",750 mg/L
same,Minimal Inhibitory Concentration,S. aureus 0706C0025; S. aureus 0706C0025,0.5 mg/mL
same,MIC,"S. aureus 0706C0025; Staphylococcus aureus, 0706C0025, S. aureus 0706C0025, read-out: Minimal Inhibitory Concentration",750 mg/L
same,Minimal Inhibitory Concentration,P. aeroginosa 0704C0134,2 mg/mL
same,MIC,P. aeroginosa 0704C0134; [2],1000 mg/L
same,MIC,P. aeroginosa 0703C0259,1500 mg/L
same,Minimal Inhibitory Concentration,P. aeroginosa 0703C0259,2 mg/mL
same,Minimal Inhibitory Concentration,Salmonell enteritidis 4,2 mg/mL
same,MIC,Salmonell enteritidis 4; [2],1000 mg/L
same,Minimal Inhibitory Concentration,S. aureus 0703H0036; S. aureus 0703H0036,1.5 mg/mL
same,MIC,"S. aureus 0703H0036; Staphylococcus aureus, 0703H0036, S. aureus 0703H0036, read-out: Minimal Inhibitory Concentration",750 mg/L
same,MIC,A. baumanni CIP7034,1000 mg/L
same,Minimal Inhibitory Concentration,A. baumanni SAN008,2 mg/mL
same,MIC,A. baumanni SAN008; [2],1000 mg/L
same,Minimal Inhibitory Concentration,S. aureus 0702E0196; S. aureus 0702E0196,1.5 mg/mL
same,MIC,"S. aureus 0702E0196; Staphylococcus aureus, 0702E0196, S. aureus 0702E0196, read-out: Minimal Inhibitory Concentration",1000 mg/L
same,Minimal Inhibitory Concentration,A. baumanni AYE,2 mg/mL
same,MIC,A. baumanni AYE; [2],1000 mg/L
same,Minimal Inhibitory Concentration,S. aureus ATC25923; S. aureus ATC25923,1.5 mg/mL
same,MIC,"S. aureus ATC25923; Staphylococcus aureus, ATC25923, S. aureus ATC25923, read-out: Minimal Inhibitory Concentration",750 mg/L
same,Minimal Inhibitory Concentration,K. oxyloca 0705C0187,2 mg/mL
same,MIC,K. oxyloca 0705C0187; [2],1000 mg/L
CC[C@H]1OC(=O)[C@H](C)[C@@H](O[C@H]2C[C@@](C)(OC)[C@@H](O)[C@H](C)O2)[C@H](C)[C@@H](O[C@@H]2O[C@H](C)C[C@H](N(C)C)[C@H]2O)[C@](C)(O)C[C@@H](C)C(=O)[C@H](C)[C@@H](O)[C@]1(C)O [Erythromycin],LD50 in mice by intraperitoneal injection,[1],280 mg/kg
